For orientation: half-life means the time needed for the level to fall by half in the phase considered.

Structures are written as SMILES.

The data set concerns human liver microsomes, metabolic stability half-life. Description: NCATS Human Liver Microsomal (HLM) Stability Profiling. The conditions noted are these: higher = more stable; screened at 1 µM (by protocol). In short, it runs like this:
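Substrate depletion (in vitro t1/2): 1 µM compound with 0.5 mg/mL microsomes and NADPH regenerating system, phosphate buffer pH 7.4, 37 °C. Sampled at 0, 5, 10, 15, 30, 60 min into cold acetonitrile with albendazole internal standard for MS quantification.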
`O=C(N[C@@H]1CC[C@@H](c2cccc(F)c2F)CN(CC(F)(F)F)C1=O)N1CCC(n2c(=O)[nH]c3ncccc32)CC1` showed a half-life of 60.2 min.

In turn, `COc1ccc(CN(CCN(C)C)c2ncccn2)cc1` yielded a half-life of 8.72 min. In turn, `CCc1cc(-c2n[nH]c(C)c2-c2ccc3c(c2)OCCO3)c(O)cc1O` had a half-life of 13.4 min.

Compound `COC(=O)[C@@H]1CC2=CC(=O)CC[C@]2(C)[C@@]23O[C@@H]2C[C@@]2(C)[C@H](CC[C@@]24CCC(=O)O4)[C@@H]13` yielded a half-life of more than 120 min.

`COc1ccc(-n2nc(C3CCCN(CC4CCCCC4)C3)[nH]c2=O)cc1` (stereo unspecified) had a half-life of 108 min.

Compound `CCN(CC)C(=O)c1cccc(C)c1` had a half-life of more than 120 min. As to `CC(C)CCn1c(CN2CCN(C(=O)C(C)C)CC2)nc2c1c(=O)n(C)c(=O)n2C`, the half-life came out at 70.7 min. The compound `CCN(CC)Cc1cccc(/C=C/c2nc3ccc(F)cc3c(=O)n2-c2ccccc2Cl)n1` gave a half-life of 25.8 min.

`CC(C)c1ccccc1OC(=O)NCCc1ccc2ccccc2c1` registered a half-life of 4.54 min.

In the case of `CC(C)(C)c1ccc(-c2nc(SCC(=O)Nc3ccc(Cl)cc3)[nH]c(=O)c2C#N)cc1`, the half-life was determined as 19.2 min. `N#Cc1cnc2cnc(NCc3cccnc3)cc2c1Nc1ccc(F)c(Cl)c1` had a half-life of 12.4 min. `CCOC(=O)c1ncn2c1CN(C)C(=O)c1c(I)cccc1-2` came in with a half-life of 111 min. The compound `Cc1ccc(-c2cc3ncc(C(=O)c4cc([N+](=O)[O-])ccc4O)cn3n2)cc1` displayed a half-life of 4.91 min. The compound `COP(=S)(OC)SCn1nnc2ccccc2c1=O` returned a half-life of 8.16 min. `Cc1cccc(C)c1NC(=O)CN1CCCC1` had a half-life of more than 120 min. On to `CN/C(=C\[N+](=O)[O-])NCCSCc1csc(CN(C)C)n1`, for which the half-life is more than 120 min. Regarding `C#CCN(Cc1cc2c(=O)[nH]c(C)nc2cc1Br)c1ccc(C(=O)NCc2cccnc2)cc1`, the half-life was found to be 9.7 min. With `CC(C)(C)c1cnc(CSc2cnc(NC(=O)C3CCNCC3)s2)o1`, the half-life is more than 120 min.

As to `CCOc1ccccc1OCCN[C@H](C)Cc1ccc(OC)c(S(N)(=O)=O)c1`, the half-life is more than 120 min. The result for `CC(C)(C)Nc1nc(Nc2ccc(C(N)=O)cc2)cc(N)c1C#N` reads more than 120 min; that for `CCCn1cc2c(nc(NC(=O)Nc3ccc(OC)cc3)n3nc(-c4ccco4)nc23)n1`, more than 120 min; that for `CC1(C)CCC(CN2CCN(c3ccc(C(=O)NS(=O)(=O)c4ccc(NCC5CCOCC5)c([N+](=O)[O-])c4)c(Oc4cnc5[nH]ccc5c4)c3)CC2)=C(c2ccc(Cl)cc2)C1`, 32.8 min.

The compound `Cc1c(NC(=O)OCC2COCCN2)cn2ncnc(Nc3ccc4c(cnn4Cc4cccc(F)c4)c3)c12` (stereo unspecified) had a half-life of more than 120 min. In turn, `CCOC(=O)c1cc(C#N)c(N2CCC(C(=O)NS(=O)(=O)Cc3ccccc3)CC2)nc1C` registered a half-life of 43.7 min.

Regarding `COc1cc(O)cc(O)c1`, the half-life was more than 120 min.

Compound `O=C1CN2CCOC2(c2ccccc2Cl)c2cc(Cl)ccc2N1` (stereo unspecified) registered a half-life of 4.56 min. On to `CC1(C#N)CCN(c2c(C(=O)N3CCN(C(=O)N4CCCC4)CC3)cnc3c(F)cc(F)cc23)CC1`, for which the half-life was 27.2 min.

With `Cc1ccc(NC(=O)c2cccc(N(C)C)c2)cc1NC(=O)c1ccc(O)cc1`, the half-life came out at 18.9 min. Under `CCN1CCN(C(=O)c2ccc3c(c2)N(Cc2cc(C)ccc2C)C(=O)c2ccccc2S3(=O)=O)CC1` stands 1.24 min; under `COCCCNC(=O)CCC(=O)NNc1nc2ccccc2c2nc(-c3ccccc3)nn12`, more than 120 min. In turn, `N#Cc1cccc(CN2CCOC[C@H]2c2ncc(-c3ccc(F)cc3)[nH]2)c1` yielded a half-life of 3.38 min. With `CCn1ccnc1C[C@@H]1COc2ccccc2O1`, the half-life came to 55.3 min. `O=c1c(-c2ccccc2)c1-c1ccccc1` gave a half-life of 3.57 min.

`CCNC1(C(N)=O)CN(c2nc(C)nc3c(-c4ccc(Cl)cc4)c(-c4ccccc4Cl)nn23)C1` displayed a half-life of 20.5 min. On to `Cc1ccc(-c2noc([C@@H]3Cc4nc[nH]c4CN3Cc3cccc(C#N)c3)n2)cc1`, for which the half-life is 11.4 min.

Compound `O=C(NOCC1CC1)c1ccc(F)c(F)c1Nc1ccc(I)cc1Cl` yielded a half-life of 11.2 min. In the case of `CCOc1ccc(S(=O)(=O)NCCc2sc(-c3ccc(C)cc3)nc2C)cc1`, the half-life is 4.09 min. The compound `CNc1nccc(-c2cccnc2Oc2cc(C(=O)Nc3cccc(C(F)(F)F)c3)ccc2C)n1` came in with a half-life of 11.3 min. Regarding `Cc1ccc(-c2nc3ccc(C)cn3c2CC(=O)N(C)C)cc1`, the half-life was more than 120 min. Compound `O=c1[nH]c([C@@H]2CCCN2)nc2c1oc1ccc(Cl)cc12` gave a half-life of more than 120 min. Turning to `COc1ccc(OC)c([C@H](O)[C@H](C)N)c1`, the half-life was more than 120 min.

On to `O=C(O)c1ccc2c(c1)nc(Nc1cccc(Cl)c1)c1ccncc12`, for which the half-life was found to be 82.5 min. Under `CC(C)Cc1ccc(CC(=O)O)cc1` stands more than 120 min; under `CCC(=O)NS(=O)(=O)c1ccc(-c2c(-c3ccccc3)noc2C)cc1`, 48.5 min; under `CCC(=C(c1ccc(OCCN2CCCC2)cc1)c1ccc(OCCN2CCCC2)cc1)c1ccccc1`, more than 120 min.

`CCN1CCc2nc(N)oc2CC1` registered a half-life of 112 min. Under `O=C1NC(=Nc2ccccc2F)S/C1=C\c1ccc(C(=O)O)cc1` stands 52.4 min; under `C[C@]12CC[C@@H]3c4ccc(O)cc4CC[C@H]3[C@@H]1C[C@@H](O)[C@@H]2O`, more than 120 min; under `CCOP(=S)(OCC)Oc1nc(Cl)n(C(C)C)n1`, 15.1 min. `CNCCCC12CCC(c3ccccc31)c1ccccc12` had a half-life of more than 120 min. Turning to `N#Cc1ccc(C(=O)Nc2ccc(Cl)c(-c3nc4cc(Cl)ccc4o3)c2)c(F)c1`, the half-life was found to be 15.4 min. `[O-][n+]1cccc(CO)c1`: the half-life is more than 120 min. For the compound `CCN[C@H]1C[C@H](C)S(=O)(=O)C2SC(S(N)(=O)=O)C=C21` (stereo partly specified), the half-life was determined as 105 min.

`CC[C@]1(C2=NCCN2)Cc2ccccc2O1` had a half-life of more than 120 min. With `NC(=O)N1c2ccccc2C=Cc2ccccc21`, the half-life was more than 120 min.

The compound `Cc1nn2c(c1-c1ccccc1Oc1ccccc1)N(Cc1ccc(C(=O)O)cc1)CCC2` displayed a half-life of 6.19 min. Compound `C=Cc1cc(O)cc2nc(-c3ccc(O)c(F)c3)oc12` gave a half-life of 5.84 min. In the case of `O=C(O)c1cccc(CN2C(=O)/C(=C(\c3ccccc3)c3ccc(Cl)cc3)c3ccccc32)c1`, the half-life is more than 120 min. The compound `O=C(CSc1nc2ccccc2n1Cc1cccc(Cl)c1)N1CCN(c2ccc(F)cc2)CC1` came in with a half-life of 0.81 min. Consider `Nc1cc(=O)[nH]c(N)n1`, for which the half-life amounted to 99.2 min.

`C=C1CCN([C@H](C)[C@](O)(Cn2cncn2)c2ccc(F)cc2F)CC1` yielded a half-life of 10 min. The result for `Cc1ccc(Nc2nc3ccccc3c3nnc(C)n23)c(C)c1` reads 6.47 min; that for `CC(C)(N)c1ncc(-c2ccc(OC(F)(F)F)cc2)[nH]1`, more than 120 min; that for `N[C@@H](Cc1ccc(Oc2cc(I)c(O)c(I)c2)c(I)c1)C(=O)O`, more than 120 min.

In turn, `COc1cc(Nc2nc3ccccc3nc2NS(=O)(=O)c2ccc(NC(=O)c3ccc(C)c(OC)c3)cc2)cc(OC)c1` gave a half-life of more than 120 min. On to `CC1(COc2ccc3c(c2)ncn3-c2ccc3cccc(N4CCC(N)CC4)c3n2)COC1`, for which the half-life worked out at 75.4 min. The result for `N#Cc1cccc(C(=O)Nc2cc(-c3ccccc3)nn2-c2ccccc2)c1` reads 18.7 min; that for `CCOCCn1c(C2CCN(CCc3ccc(C(C)(C)C(=O)O)cc3)CC2)nc2ccccc21`, more than 120 min. Under `COc1cccc(C(=O)Nc2nc(-c3nnn(-c4ccccc4C(F)(F)F)c3C)ns2)c1` stands more than 120 min; under `CN(C)S(=O)(=O)c1ccc(S(=O)(=O)N(Cc2ccccc2Cl)C[C@@H]2CCCO2)cc1`, 1.28 min. On to `O=C(NCC1CCOCC1)c1cnc(Nc2ccc(Cl)cc2Cl)nc1C(F)(F)F`, for which the half-life was 38.1 min. Compound `O=C(O)C1CN(Cc2ccc(-c3nc4cc(Cc5ccccc5F)ccc4s3)c(F)c2)C1` displayed a half-life of more than 120 min.

In the case of `COc1ccccc1N1CCN(c2csc3ccc(Cl)cc3c2=O)CC1`, the half-life worked out at 15.7 min.

`CC(C)COC[C@H](CN(Cc1ccccc1)c1ccccc1)N1CCCC1` displayed a half-life of 21.1 min.

`Cc1ccc(C(=O)N2CCc3cc(CNS(=O)(=O)c4cccs4)ccc32)cc1` showed a half-life of 5.17 min. In turn, `COc1ccccc1Cn1cc(C(=O)c2ccc(Cl)cc2)c(=O)c2cc3c(cc21)OCCO3` came in with a half-life of 40.8 min. `CCCNC(=O)C1CCC(Cn2c(=O)c3sccc3n(CC(=O)NCc3ccccc3)c2=O)CC1` (stereo unspecified): the half-life came out at 11.2 min.

For the compound `C1N2CN3CN1CN(C2)C3`, the half-life came to 30.5 min. In turn, `NC(=O)c1ccccc1Nc1ccnc(Nc2cccc(O)c2)n1` had a half-life of 21.8 min. Regarding `Cc1ccc(C(C)(O)c2nc3ccccc3s2)c(C)c1` (stereo unspecified), the half-life worked out at 4.22 min. For the compound `NS(=O)(=O)c1ccc(Cc2c(-c3cccc(-c4ccccc4)c3)nn(-c3nc(C(=O)O)cs3)c2CC2CC2)cc1`, the half-life was 83.6 min. Under `C=C1CC[C@@]2(O)[C@H]3Cc4ccc(O)c5c4[C@@]2(CCN3CC2CC2)[C@H]1O5` stands more than 120 min. `COc1ccc2cc(OCC3(C(=O)O)CN(C(=O)c4ccc(F)cc4)C3)ccc2c1`: the half-life amounted to 8.64 min. In turn, `c1ccc2c(c1)CCC[C@H]2C1=NCCN1` gave a half-life of more than 120 min. Turning to `Cc1ccc(Nc2nc(C)c(NC(=O)c3ccc(C)cc3)c(Nc3ccc(C)cc3)n2)cc1`, the half-life turned out to be 20.5 min.

As to `CCOc1ccc(NC(=O)Cn2cc(C(=O)c3cccs3)c3ccccc32)cc1`, the half-life is 10.5 min. `Cc1c(Cl)ccc2sc(N3CCN(C(=O)CS(=O)(=O)c4ccccc4)CC3)nc12` registered a half-life of 61.2 min.

For the compound `CC(=O)Nc1cccc(O)c1`, the half-life was more than 120 min. The result for `Cc1ccccc1NC(=O)Nc1cccs1` reads 22.8 min; that for `CN1C(=O)C(Cc2ccc3ccccc3c2)N=C(c2ccc(O)cc2)c2cc(Cl)ccc21` (stereo unspecified), more than 120 min.

On to `CC(=O)N1CCN(C(=O)Cc2ccc(Nc3ncc(F)c(Nc4ccc(C(=O)Nc5ccccc5Cl)cc4)n3)cc2)CC1`, for which the half-life is 15.6 min.

The values are drawn from PubChem BioAssay AID1963597 (National Center for Advancing Translational Sciences (NCATS), 2024).
